Data on 2 compounds can be found in patent US20070237756A1, “Antimicrobial preparations” (PURAC BIOCHEM B.V., priority 2006, published 2007).

Test [1] relates to Salmonella typhimurium ATCC 13311. In words: Growth in inoculated milk at 12° C., plate count. The format is cell-based. The settings on record: non-fat milk; for CFU/ml, day 0: 0 days; for CFU/ml, day 2: 2 days; for CFU/ml, day 4: 4 days; for CFU/ml, day 6: 6 days. As for the experimental part:
Stock cultures of Salmonella typhimurium ATCC 13311 and Escherichia coli O157:H7 ATCC 700728 which were used to inoculate liquid cultures were routinely kept on agar plates containing brain heart infusion (Oxoid CM225, Basingstoke, United Kingdom) fortified with 1.5% agar. […] Just prior to the inoculation of the foods the cultures were diluted with a solution containing 0.1% peptone and 0.85% NaCl.
Sterile non-fat milk was obtained from a local supermarket. Appropriate quantities of amino acids were added.
Milk was cooled to 10° C. and subsequently inoculated with an appropriately diluted culture of Salmonella typhimurium. Inoculated milk samples were incubated at 12° C.
The microbial analysis of the food samples was done as follows: A sealing bag was opened and to this were added 2 times the net weight of sterile dilution fluid ([…] and 0.1% (w/v) bacteriological peptone). Samples were homogenized for 1 min in a Stomacher 400 lab blender (Seward Medical, London, England) and 50 μl of the homogenate were plated on a suitable agar medium using an Eddyjet type 1.23 spiral plater (IUL Instruments, Barcelona, Spain). Escherichia coli 0157:H7 and Salmonella typhimurium were plated on VRBG agar (Oxoid, CM0485, Basingstoke, United Kingdom). Plates were incubated for 24 hours at 30° C. and then counted.
The effect of single additions of glycine, DL-alanine and a mixture of glycine (0.67%) and DL-alanine (0.8%) on the growth of Salmonella typhimurium in milk at 12° C. is given in Table I: […]

For test [2], the system named is Salmonella enterica (ATCC 13311). Conditions: broth cultures, to a concentration of 100 mM, single amino acid.

Regarding `CC(N)C(=O)O` (racemic) [DL-alanine], in test [1], the “CFU/ml, day 0” value is on record as 5 · 10^3 CFU/ml; the “CFU/ml, day 2” value is listed as 5 · 10^4 CFU/ml; the “CFU/ml, day 4” value is given as 4 · 10^5 CFU/ml; the “CFU/ml, day 6” value is recorded as 1 · 10^5 CFU/ml. Besides, the “effect on the growth rate of Salmonella typhimurium” value in test [2] is given as “little or no effect”.

With `NCC(=O)O` [glycine], in test [1], the “CFU/ml, day 0” value is listed as 5 · 10^3 CFU/ml; the “CFU/ml, day 2” value is reported as 5 · 10^4 CFU/ml; the “CFU/ml, day 4” value was 1 · 10^5 CFU/ml; the “CFU/ml, day 6” value was 8 · 10^4 CFU/ml. Moreover, the “effect on the growth rate of Salmonella typhimurium” value in test [2] was “little or no effect”.
